Experimental data from paper PMC4700476, “Differential regulation by AMP and ADP of AMPK complexes containing different γ subunit isoforms” (Biochemical Journal, 2016).

How the values were obtained:
[1] = test system: γ1-containing AMPK complexes in HEK-293 cells expressing FLAG–γ1; assay: Activation of AMPK complexes in intact cells (anti-FLAG IP kinase assay and pThr172 blot); format: cell-based, human; conditions: γ1 complex; 60 min; phenformin 10 mM, berberine 300 μM, A23187 10 μM, A-769662 300 μM
Method: (§1) HEK-293 cells expressing tetracycline-inducible human γ1, γ2 and γ3 with N-terminal FLAG tags were obtained by inserting the appropriate DNA into cells carrying a Flp recombinase target site with co-transfection of DNA encoding Flp recombinase; expression of the γ subunits was induced by adding tetracycline (1 μg·ml^−1) to the medium for 48 h.
(§2) HEK-293 cells were grown in Dulbecco's modified Eagle's medium (DMEM) containing 4.5 g/l glucose, 10% (v/v) FBS, 100 units/ml penicillin, 100 μg/ml streptomycin, 200 μg/ml hygromycin and 15 μg/ml blasticidin. The medium was replaced with medium containing 1 g/l glucose, 16 h before the treatments described in the text.
(§3) Cell lysates were made using the rapid lysis procedure. Lysates containing stably expressed recombinant FLAG-tagged γ subunits were immunoprecipitated from HEK-293 cell lysates (90 μg of lysate protein) by incubation at 4°C for 2 h on a roller mixer with 7.5 μl of EZview Red anti-FLAG M2 affinity gel (Sigma–Aldrich). After extensive washing, the immunoprecipitates (IPs) were assayed for AMPK activity on an orbital shaker as described previously except that the AMARA peptide substrate was used in all assays apart from those shown in Figures 3 and 4. The SAMS peptide was used in the latter because, for reasons that remain unclear, the degree of allosteric activation is always greater using this substrate.
(§4) Figure 2 Activation of FLAG–γ1,–γ2 or–γ3 by various AMPK activators Cells expressing FLAG–γ1,–γ2 or–γ3 were incubated with DMSO (vehicle), phenformin (10 mM), berberine (300 μM), A23187 (10 μM) or A-769662 (300 μM) for 60 min, AMPK complexes were immunoprecipitated using anti-FLAG antibodies and were analysed by kinase assays (upper panel) and Western blotting (lower panel). […] The absolute activities (nmol/min/mg of lysate protein) in the DMSO controls were: 0.16±0.01 (γ1), 0.24±0.01 (γ2) and 0.053±0.001 (γ3; means ± S.E.M., n=3).

[2] = test system: γ3-containing AMPK complexes in HEK-293 cells expressing FLAG–γ3; assay: as above; format: cell-based, human; conditions: for AMPK activation and Thr172 phosphorylation in intact cells: γ3 complex, 60 min, phenformin 10 mM, berberine 300 μM, A23187 10 μM, A-769662 300 μM
Method: as §1, §2, §3, §4

[3] = test system: γ2-containing AMPK complexes in HEK-293 cells expressing FLAG–γ2; assay: as above; format: cell-based, human; conditions: γ2 complex; 60 min; phenformin 10 mM, berberine 300 μM, A23187 10 μM, A-769662 300 μM
Method: as §1, §2, §3, §4

[4] = test system: AMPK; parameters: method as in PMID 24746562; conditions: AMPK not phosphorylated on Thr172; cited from earlier work
[5] = test system: rat hepatocytes; parameters: method as in PMID 17855357; conditions: cited from earlier work
[6] = test system: γ1-containing AMPK complexes in mouse skeletal muscle; parameters: method as in PMID 25695398; conditions: cited from earlier work
[7] = test system: γ3-containing AMPK complexes in mouse skeletal muscle; parameters: method as in PMID 25695398; conditions: cited from earlier work

Row | Structure (SMILES) | AMPK activation and Thr172 phosphorylation in intact cells [1] | AMPK activation and Thr172 phosphorylation in intact cells [2] | AMPK activation and Thr172 phosphorylation in intact cells [3] | also measured
1 | CNc1ccc2oc(C[C@H]3O[C@@]4(CC[C@H]3C)O[C@H]([C@H](C)C(=O)c3ccc[nH]3)[C@H](C)C[C@H]4C)nc2c1C(=O)O [A23187] | activated | activated | activated | 
2 | N#Cc1c(O)c2c(-c3ccc(-c4ccccc4O)cc3)csc2[nH]c1=O [A-769662] | did not significantly activate | only modest increases | only modest increases | allosteric activation of AMPK [4]: > 60 fold; increases in Thr172 phosphorylation [5]: negligible; phosphorylation of acetyl-CoA carboxylase (ACC) [5]: marked phosphorylation
3 | NC(=O)c1ncn([C@@H]2O[C@H](CO)[C@@H](O)[C@H]2O)c1N [AICAR, 5-aminoimidazole-4-carboxamide riboside] |  |  |  | activation of γ1-containing complexes [6]: activated both isoforms; activation of γ3-containing complexes [7]: activated both isoforms
4 | O=C(O)c1ccc2c3c1cccc3c(=O)n1c3ccccc3nc21 [STO-609] |  |  |  | effect on activation of γ3 complex by A23187 ([2]; results not shown): completely blocked
5 | COc1ccc2cc3[n+](cc2c1OC)CCc1cc2c(cc1-3)OCO2 [berberine, Berberine chloride] | activated | activated | activated | 
6 | [H]/N=C(/N)N/C(=N/[H])NCCc1ccccc1 [phenformin] | activated | activated | activated | 
